Laboratory results published in US9995734B2, “Human T cell line assay for evaluating the immunologic identity of glatiramer acetate preparations” (Mylan Inc., priority 2013, dated 2018).
“And” between values parts separate entries of the source, which are not always exact repeats. Identical values can stand only once.

System: panel of six GA-specific long-term human T-cell lines (222-2D8, 222-2F12, 165-F3C, 165-F6C, 205-1C4, 205-1F4)
Experiment: GA-specific human T-cell line panel assay (ATP proliferation): GA test lots and altered GA lots compared with Copaxone
Format: cell-based
Details: for ATP Proliferation Assay, Mean / Proliferation (ATP assay), Mean: 4 days
Method: Proliferation assays, using the panel of six GA-specific long-term human T-cell lines listed in Table 78, were carried out to compare […] GA test lots, GMA/009/14 (GA Lot 009), GMA/010/14 (GA Lot 010), GMA/011/14 (GA Lot 011), GMA/012/14 (GA Lot 012), GMA/013/14 (GA Lot 013), GMA/014/14 (GA Lot 014), GA Lot 016, GMA/017/14 (GA Lot 017), GMA/018/14 (GA Lot 018), and GMA/070/14 (GA Lot 070), manufactured using standard methods, to a Copaxone reference lot.
Each T-cell line was restimulated using methods described above, using five concentrations of the reference antigen (0.5, 1, 2, 2.5, and 5 μg/ml Copaxone), the same five concentrations of test antigen (the nine GA test lots), and a no antigen control, in the presence of 5×10^4 mitomycin-treated autologous B-LCL. Proliferation was measured by ATP assay after 4 days of incubation with antigen, using methods described previously.
The percentages in the last column of each table were calculated as follows: Proliferation response to test antigen minus proliferation response to control (no antigen)÷proliferation response to reference antigen minus proliferation response to control (no antigen)
The panel of six GA-specific human T-cell lines listed in Table 78 above was used to test the immunological identity of altered GA lots to Copaxone.
Proliferation assays using the panel of six GA-specific T-cell lines (Table 77) were carried out, to compare negative GA lots 051F, 054F, 055F, 057F, 058F, 059F, and 060F (test lots), to Copaxone (reference lot). Each cell line was restimulated using 5 concentrations of reference antigen (Copaxone) and test antigen (the negative GA lots), including a no antigen control (in the presence of 5×10^4 mitomycin-treated autologous B-LCL). Proliferation was measured by ATP assay after 4 days of incubation with antigen, using methods described previously.
The percentages in the last column of each table were calculated as follows: Proliferation response to test antigen minus proliferation response to control (no antigen)÷proliferation response to reference antigen minus proliferation response to control (no antigen).

glatiramer acetate [COP]
ATP Proliferation Assay, Mean (T-cell line 165-F3C, 0.5 μg/mL): 4,783 | ATP Proliferation Assay, Mean (T-cell line 165-F3C, 1 μg/mL): 22,290 | ATP Proliferation Assay, Mean (T-cell line 165-F3C, 2 μg/mL): 53,771 | ATP Proliferation Assay, Mean (T-cell line 165-F3C, 2.5 μg/mL): 54,539 | ATP Proliferation Assay, Mean (T-cell line 165-F3C, 5 μg/mL): 58,110 | ATP Proliferation Assay, Mean (T-cell line 165-F6C, 0.5 μg/mL): 3,328 | ATP Proliferation Assay, Mean (T-cell line 165-F6C, 1 μg/mL): 4,620 | ATP Proliferation Assay, Mean (T-cell line 165-F6C, 2 μg/mL): 13,255 | ATP Proliferation Assay, Mean (T-cell line 165-F6C, 2.5 μg/mL): 18,726 | Mean, ATP proliferation assay (T-cell line 165-F6C, 5 μg/mL): 34,012 and 34,995 and 56,466 and 56,465 and 42,493 and 41,233 and 36,303 | ATP Proliferation Assay, Mean (T-cell line 165-F6C, 5 μg/mL): 38,653 | ATP Proliferation Assay, Mean (T-cell line 205-1C4, 0.5 μg/mL): 932 | ATP Proliferation Assay, Mean (T-cell line 205-1C4, 1 μg/mL): 2,481 | ATP Proliferation Assay, Mean (T-cell line 205-1C4, 2 μg/mL): 9,432 | ATP Proliferation Assay, Mean (T-cell line 205-1C4, 2.5 μg/mL): 13,744 | ATP Proliferation Assay, Mean (T-cell line 205-1C4, 5 μg/mL): 45,451 | ATP Proliferation Assay, Mean (T-cell line 205-1F4, 0.5 μg/mL): 548 | ATP Proliferation Assay, Mean (T-cell line 205-1F4, 1 μg/mL): 1,906 | ATP Proliferation Assay, Mean (T-cell line 205-1F4, 2 μg/mL): 9,959 | ATP Proliferation Assay, Mean (T-cell line 205-1F4, 2.5 μg/mL): 13,589 | ATP Proliferation Assay, Mean (T-cell line 205-1F4, 5 μg/mL): 18,491 | ATP Proliferation Assay, Mean (T-cell line 222-2D8, 0.5 μg/mL): 5,873 | ATP Proliferation Assay, Mean (T-cell line 222-2D8, 1 μg/mL): 14,017 | ATP Proliferation Assay, Mean (T-cell line 222-2D8, 2 μg/mL): 90,328 | ATP Proliferation Assay, Mean (T-cell line 222-2D8, 2.5 μg/mL): 129,878 | ATP Proliferation Assay, Mean (T-cell line 222-2D8, 5 μg/mL): 171,116 | ATP Proliferation Assay, Mean (T-cell line 222-2F12, 0.5 μg/mL): 10,879 | ATP Proliferation Assay, Mean (T-cell line 222-2F12, 1 μg/mL): 27,042 | ATP Proliferation Assay, Mean (T-cell line 222-2F12, 2 μg/mL): 105,024 | ATP Proliferation Assay, Mean (T-cell line 222-2F12, 2.5 μg/mL): 115,241 | ATP Proliferation Assay, Mean (T-cell line 222-2F12, 5 μg/mL): 129,291 | Proliferation (ATP assay), Mean (Table 95, T-cell line 165-F3C, GA conc. 0.5 μg/mL): 3,154 | Proliferation (ATP assay), Mean (Table 95, T-cell line 165-F3C, GA conc. 1 μg/mL): 9,050 | Proliferation (ATP assay), Mean (Table 95, T-cell line 165-F3C, GA conc. 2 μg/mL): 27,693 | Proliferation (ATP assay), Mean (Table 95, T-cell line 165-F3C, GA conc. 2.5 μg/mL): 28,018 | Proliferation (ATP assay), Mean (Table 95, T-cell line 165-F3C, GA conc. 5 μg/mL): 32,151 | Proliferation (ATP assay), Mean (Table 95, T-cell line 165-F6C, GA conc. 0.5 μg/mL): 863 | Proliferation (ATP assay), Mean (Table 95, T-cell line 165-F6C, GA conc. 1 μg/mL): 1,838 | Proliferation (ATP assay), Mean (Table 95, T-cell line 165-F6C, GA conc. 2 μg/mL): 8,163 | Proliferation (ATP assay), Mean (Table 95, T-cell line 165-F6C, GA conc. 2.5 μg/mL): 11,665 | Proliferation (ATP assay), Mean (Table 95, T-cell line 165-F6C, GA conc. 5 μg/mL): 30,422 | Proliferation (ATP assay), Mean (Table 95, T-cell line 205-1C4, GA conc. 0.5 μg/mL): 13,267 | Proliferation (ATP assay), Mean (Table 95, T-cell line 205-1C4, GA conc. 1 μg/mL): 26,848 | Proliferation (ATP assay), Mean (Table 95, T-cell line 205-1C4, GA conc. 2 μg/mL): 142,528 | Proliferation (ATP assay), Mean (Table 95, T-cell line 205-1C4, GA conc. 2.5 μg/mL): 159,785 | Proliferation (ATP assay), Mean (Table 95, T-cell line 205-1C4, GA conc. 5 μg/mL): 171,452 | Proliferation (ATP assay), Mean (Table 95, T-cell line 205-1F4, GA conc. 0.5 μg/mL): 6,984 | Proliferation (ATP assay), Mean (Table 95, T-cell line 205-1F4, GA conc. 1 μg/mL): 15,174 | Proliferation (ATP assay), Mean (Table 95, T-cell line 205-1F4, GA conc. 2 μg/mL): 46,598 | Proliferation (ATP assay), Mean (Table 95, T-cell line 205-1F4, GA conc. 2.5 μg/mL): 51,372 | Proliferation (ATP assay), Mean (Table 95, T-cell line 205-1F4, GA conc. 5 μg/mL): 61,252 | Proliferation (ATP assay), Mean (Table 95, T-cell line 222-2D8, GA conc. 0.5 μg/mL): 13,958 | Proliferation (ATP assay), Mean (Table 95, T-cell line 222-2D8, GA conc. 1 μg/mL): 87,807 | Proliferation (ATP assay), Mean (Table 95, T-cell line 222-2D8, GA conc. 2 μg/mL): 142,231 | Proliferation (ATP assay), Mean (Table 95, T-cell line 222-2D8, GA conc. 2.5 μg/mL): 140,804 | Proliferation (ATP assay), Mean (Table 95, T-cell line 222-2D8, GA conc. 5 μg/mL): 147,182 | Proliferation (ATP assay), Mean (Table 95, T-cell line 222-2F12, GA conc. 0.5 μg/mL): 3,580 | Proliferation (ATP assay), Mean (Table 95, T-cell line 222-2F12, GA conc. 1 μg/mL): 42,304 | Proliferation (ATP assay), Mean (Table 95, T-cell line 222-2F12, GA conc. 2 μg/mL): 108,046 | Proliferation (ATP assay), Mean (Table 95, T-cell line 222-2F12, GA conc. 2.5 μg/mL): 115,182 | Proliferation (ATP assay), Mean (Table 95, T-cell line 222-2F12, GA conc. 5 μg/mL): 123,169 | Proliferation (ATP assay), Mean (Table 96, T-cell line 165-F3C, GA conc. 0.5 μg/mL): 2,577 | Proliferation (ATP assay), Mean (Table 96, T-cell line 165-F3C, GA conc. 1 μg/mL): 5,743 | Proliferation (ATP assay), Mean (Table 96, T-cell line 165-F3C, GA conc. 2 μg/mL): 16,415 | Proliferation (ATP assay), Mean (Table 96, T-cell line 165-F3C, GA conc. 2.5 μg/mL): 20,446 | Proliferation (ATP assay), Mean (Table 96, T-cell line 165-F3C, GA conc. 5 μg/mL): 32,600 | Proliferation (ATP assay), Mean (Table 96, T-cell line 165-F6C, GA conc. 0.5 μg/mL): 2,228 | Proliferation (ATP assay), Mean (Table 96, T-cell line 165-F6C, GA conc. 1 μg/mL): 4,270 | Proliferation (ATP assay), Mean (Table 96, T-cell line 165-F6C, GA conc. 2 μg/mL): 15,430 | Proliferation (ATP assay), Mean (Table 96, T-cell line 165-F6C, GA conc. 2.5 μg/mL): 28,942 | Proliferation (ATP assay), Mean (Table 96, T-cell line 165-F6C, GA conc. 5 μg/mL): 45,836 | Proliferation (ATP assay), Mean (Table 96, T-cell line 205-1C4, GA conc. 0.5 μg/mL): 11,790 | Proliferation (ATP assay), Mean (Table 96, T-cell line 205-1C4, GA conc. 1 μg/mL): 26,004 | Proliferation (ATP assay), Mean (Table 96, T-cell line 205-1C4, GA conc. 2 μg/mL): 102,672 | Proliferation (ATP assay), Mean (Table 96, T-cell line 205-1C4, GA conc. 2.5 μg/mL): 124,300 | Proliferation (ATP assay), Mean (Table 96, T-cell line 205-1C4, GA conc. 5 μg/mL): 129,908 | Proliferation (ATP assay), Mean (Table 96, T-cell line 205-1F4, GA conc. 0.5 μg/mL): 8,158 | Proliferation (ATP assay), Mean (Table 96, T-cell line 205-1F4, GA conc. 1 μg/mL): 17,491 | Proliferation (ATP assay), Mean (Table 96, T-cell line 205-1F4, GA conc. 2 μg/mL): 51,613 | Proliferation (ATP assay), Mean (Table 96, T-cell line 205-1F4, GA conc. 2.5 μg/mL): 60,244 | Proliferation (ATP assay), Mean (Table 96, T-cell line 205-1F4, GA conc. 5 μg/mL): 54,345 | Proliferation (ATP assay), Mean (Table 96, T-cell line 222-2D8, GA conc. 0.5 μg/mL): 2,785 | Proliferation (ATP assay), Mean (Table 96, T-cell line 222-2D8, GA conc. 1 μg/mL): 28,970 | Proliferation (ATP assay), Mean (Table 96, T-cell line 222-2D8, GA conc. 2 μg/mL): 76,089 | Proliferation (ATP assay), Mean (Table 96, T-cell line 222-2D8, GA conc. 2.5 μg/mL): 90,666 | Proliferation (ATP assay), Mean (Table 96, T-cell line 222-2D8, GA conc. 5 μg/mL): 99,491 | Proliferation (ATP assay), Mean (Table 96, T-cell line 222-2F12, GA conc. 0.5 μg/mL): 2,404 | Proliferation (ATP assay), Mean (Table 96, T-cell line 222-2F12, GA conc. 1 μg/mL): 11,359 | Proliferation (ATP assay), Mean (Table 96, T-cell line 222-2F12, GA conc. 2 μg/mL): 78,880 | Proliferation (ATP assay), Mean (Table 96, T-cell line 222-2F12, GA conc. 2.5 μg/mL): 95,825 | Proliferation (ATP assay), Mean (Table 96, T-cell line 222-2F12, GA conc. 5 μg/mL): 107,930
